Reference: patent US8785455B2, “Polymorph of linagliptin benzoate” (Sandoz AG, priority 2011, dated 2014)

What was measured:
[1] = stability upon storage at conditions of high relative humidity; assay type: physicochemical
[2] = dynamic water vapor sorption/desorption (moisture sorption isotherm); assay type: physicochemical; conditions: for hygroscopicity (in words): comparison of moisture sorption isotherms, FIGS. 4 and 5; for water uptake: from about 3 to 90% relative humidity at about 25° C., w % = weight % of water in relation to total weight
Procedure: The water uptake of the crystalline forms of Linagliptin benzoate was determined by dynamic water vapor sorption/desorption. Therefore both forms were conditioned at about 28% relative humidity (RH) and the initial water content was determined by Karl-Fischer-titration. Then a moisture sorption experiment was performed with an SPSx-1μ moisture sorption analyzer (Projekt Messtechnik, Ulm) by stepwise increasing the RH in the range of about 3% RH to about 90% RH within approximately 2.5 days at 25±0.1° C.

| stability upon storage [1] | water uptake [2] | hygroscopicity (in words) ([2]; listed as crystalline form of Linagliptin benzoate of WO2010/072776 A1) | SMILES | hygroscopicity (in words) [2] |
| --- | --- | --- | --- | --- |
| more stable than form I | about 2.0 w % |  | CC#CCn1c(N2CCC[C@@H](N)C2)nc2c1c(=O)n(Cc1nc(C)c3ccccc3n1)c(=O)n2C [Linagliptin benzoate form II, Linagliptin benzoate] | significantly less hygroscopic than crystalline Linagliptin benzoate of WO2010/072776 A1 |
|  | about 9.5 w % | quite hygroscopic | CC#CCn1c(N2CCC[C@@H](N)C2)nc2c1c(=O)n(Cc1nc(C)c3ccccc3n1)c(=O)n2C [crystalline Linagliptin benzoate of WO2010/072776 A1] [reference compound] |  |
